Molecules are shown by their SMILES. pIC50: −log10 of the molar value.

The term pIC50 denotes the negative decadic logarithm of the IC50, by convention in mol/L.

The subject of this assay is IL-2 production. Put plainly: Inhibition of IL-2 production in PHA-activated Jurkat cells (ELISA). It counts as cell-based. To be noted: Homo sapiens, PHA 2.5 μg/mL, 20 hours, IL-2 ELISA. The protocol:
Jurkat cells were placed in a 96 well plate (0.5 million cells per well in 1% FBS medium) then a test compound of this invention was added at different concentrations. After 10 minutes, the cells were activated with PHA (final concentration 2.5 μg/mL) and incubated for 20 hours at 37° C. under CO2. The final volume was 200 μL. Following incubation, the cells were centrifuged and the supernatants were collected and stored at −70° C. prior to assaying for IL-2 production. A commercial ELISA kit (IL-2 Eli-pair, Diaclone Research, Besancon, France) was used to detect production of IL-2, from which dose response curves were obtained. The IC50 value was calculated as the concentration at which 50% of maximum IL-2 production after stimulation was inhibited versus a non-stimulation control.

Compound `COc1ccc2c(c1)nc(C(F)(F)F)n2-c1cnc(NC(=O)c2ccccc2Br)cn1` [Compound 85, 2-Bromo-N-[5-(5-methoxy-2-trifluoromethyl-benzoimidazol-1-yl)-pyrazin-2-yl]-benzamide] had a negative-log IC50 (pIC50) of 7.43.

As for `COc1ccc2c(c1)nc(C(F)(F)F)n2-c1cnc(NC(=O)c2ccccc2Cl)cn1` [Compound 99, 2-Chloro-N-[5-(5-methoxy-2-trifluoromethyl-benzoimidazol-1-yl)-pyrazin-2-yl]-benzamide], the negative-log IC50 (pIC50) was 7.28. This pIC50 and that of the compound before are within 0.2 log units of each other.

`COc1ccc2c(c1)nc(C(F)(F)F)n2-c1cnc(NC(=O)c2cccc(C)c2)cn1` [Compound 116, N-[5-(5-Methoxy-2-trifluoromethyl-benzoimidazol-1-yl)-pyrazin-2-yl]-3-methyl-benzamide] showed a negative-log IC50 (pIC50) of 6.77.

In turn, `COc1ccc2c(c1)nc(C(F)(F)F)n2-c1cnc(NC(=O)c2ccccc2C(F)(F)F)cn1` [Compound 145, N-[5-(5-Methoxy-2-trifluoromethyl-benzoimidazol-1-yl)-pyrazin-2-yl]-2-trifluoromethyl-benzamide] had a pIC50 of 7.00.

For `COc1ccc2c(c1)nc(C(F)(F)F)n2-c1cnc(NCc2ccccc2F)cn1` [Compound 41, (2-Fluoro-benzyl)-[5-(5-methoxy-2-trifluoromethyl-benzoimidazol-1-yl)-pyrazin-2-yl]-amine], the pIC50 is 6.40.

Consider `COc1ccc2c(c1)nc(C(F)(F)F)n2-c1cnc(NC(=O)c2cccc(OC)c2OC)cn1` [Compound 128, 2,3-Dimethoxy-N-[5-(5-methoxy-2-trifluoromethyl-benzoimidazol-1-yl)-pyrazin-2-yl]-benzamide], for which the pIC50 was 6.73.

Take `COc1ccc2c(c1)nc(C(F)(F)F)n2-c1cnc(NCc2ccccc2C)cn1` [Compound 46, [5-(5-Methoxy-2-trifluoromethyl-benzoimidazol-1-yl)-pyrazin-2-yl]-(2-methyl-benzyl)-amine]: the negative-log IC50 (pIC50) is less than 6.00.

`COc1ccc2c(c1)nc(C(F)(F)F)n2-c1cnc(NC(=O)c2ccc(F)cc2F)cn1` [Compound 7, 2,4-Difluoro-N-[5-(5-methoxy-2-trifluoromethyl-benzoimidazol-1-yl)-pyrazin-2-yl]-benzamide] had a pIC50 of 7.48.

In the case of `COc1ccc2c(c1)nc(C(F)(F)F)n2-c1cnc(NCc2ccccc2OC)cn1` [Compound 102, (2-Methoxy-benzyl)-[5-(5-methoxy-2-trifluoromethyl-benzoimidazol-1-yl)-pyrazin-2-yl]-amine], the pIC50 is less than 6.00.

Turning to `COc1ccc2c(c1)nc(C(F)(F)F)n2-c1cnc(NC(=O)c2ccc(F)cc2)cn1` [Compound 86, 4-Fluoro-N-[5-(5-methoxy-2-trifluoromethyl-benzoimidazol-1-yl)-pyrazin-2-yl]-benzamide], the negative-log IC50 (pIC50) was 6.82.

Regarding `COc1ccc2c(c1)nc(C(F)(F)F)n2-c1cnc(NC(=O)c2cc(Br)ccc2F)cn1` [Compound 130, 5-Bromo-2-fluoro-N-[5-(5-methoxy-2-trifluoromethyl-benzoimidazol-1-yl)-pyrazin-2-yl]-benzamide], the pIC50 was 6.89.

`COc1ccc2c(c1)nc(C(F)(F)F)n2-c1cnc(NC(=O)c2ccc(C#N)cc2)cn1` [Compound 93, 4-Cyano-N-[5-(5-methoxy-2-trifluoromethyl-benzoimidazol-1-yl)-pyrazin-2-yl]-benzamide] had a pIC50 of 6.74.

The compound `COc1ccc2c(c1)nc(C(F)(F)F)n2-c1cnc(NC(=O)c2cccc(C)c2[N+](=O)[O-])cn1` [Compound 142, N-[5-(5-Methoxy-2-trifluoromethyl-benzoimidazol-1-yl)-pyrazin-2-yl]-3-methyl-2-nitro-benzamide] had a pIC50 of 6.49.

For `COc1ccc2c(c1)nc(C(F)(F)F)n2-c1cnc(NC(=O)c2ccc(C)cc2C)cn1` [Compound 94, N-[5-(5-Methoxy-2-trifluoromethyl-benzoimidazol-1-yl)-pyrazin-2-yl]-2,4-dimethyl-benzamide], the negative logarithm of the IC50 (pIC50) was 7.11.

In the case of `COc1ccc2c(c1)nc(C(F)(F)F)n2-c1cnc(NCc2ccncc2)cn1` [Compound 105, [5-(5-Methoxy-2-trifluoromethyl-benzoimidazol-1-yl)-pyrazin-2-yl]-pyridin-4-ylmethyl-amine], the pIC50 is less than 6.00.

Compound `COc1ccc2c(c1)nc(C(F)(F)F)n2-c1cnc(NCc2ccccc2)cn1` [Compound 115, Benzyl-[5-(5-methoxy-2-trifluoromethyl-benzoimidazol-1-yl)-pyrazin-2-yl]-amine] showed a pIC50 of less than 6.00.

In turn, `COc1ccc2c(c1)nc(C(F)(F)F)n2-c1cnc(NC(=O)c2cc(F)c(F)cc2F)cn1` [Compound 143, 2,4,5-Trifluoro-N-[5-(5-methoxy-2-trifluoromethyl-benzoimidazol-1-yl)-pyrazin-2-yl]-benzamide] showed a pIC50 of 6.75.

`COc1ccc2c(c1)nc(C(F)(F)F)n2-c1cnc(NC(=O)c2cccc([N+](=O)[O-])c2C)cn1` [Compound 135, N-[5-(5-Methoxy-2-trifluoromethyl-benzoimidazol-1-yl)-pyrazin-2-yl]-2-methyl-3-nitro-benzamide] showed a pIC50 of 6.99.

Consider `COc1ccc2c(c1)nc(C(F)(F)F)n2-c1cnc(NC(=O)c2ccc(Cl)cc2Cl)cn1` [Compound 110, 2,4-Dichloro-N-[5-(5-methoxy-2-trifluoromethyl-benzoimidazol-1-yl)-pyrazin-2-yl]-benzamide], for which the negative logarithm of the IC50 (pIC50) is 7.72. This pIC50 lies 0.73 log units higher than the previous one.

`COc1ccc2c(c1)nc(C(F)(F)F)n2-c1cnc(NC(=O)c2ccc(F)c(F)c2F)cn1` [Compound 149, 2,3,4-Trifluoro-N-[5-(5-methoxy-2-trifluoromethyl-benzoimidazol-1-yl)-pyrazin-2-yl]-benzamide] had a pIC50 of 7.06. This pIC50 is 0.66 log units lower than that of the compound before.

On to `COc1ccc2c(c1)nc(C(F)(F)F)n2-c1cnc(NC(=O)c2ccc([N+](=O)[O-])c(OC)c2)cn1` [Compound 147, 3-Methoxy-N-[5-(5-methoxy-2-trifluoromethyl-benzoimidazol-1-yl)-pyrazin-2-yl]-4-nitro-benzamide], for which the negative-log IC50 (pIC50) was less than 6.00.

`COc1ccc2c(c1)nc(C(F)(F)F)n2-c1cnc(NCc2ccc(F)cc2)cn1` [Compound 89, (4-Fluoro-benzyl)-[5-(5-methoxy-2-trifluoromethyl-benzoimidazol-1-yl)-pyrazin-2-yl]-amine] gave a pIC50 of less than 6.00.

For the compound `COc1ccc2c(c1)nc(C(F)(F)F)n2-c1cnc(NC(=O)c2cc(OC)c(OC)cc2OC)cn1` [Compound 136, 2,4,5-Trimethoxy-N-[5-(5-methoxy-2-trifluoromethyl-benzoimidazol-1-yl)-pyrazin-2-yl]-benzamide], the pIC50 was less than 6.00.

For the compound `CCOc1ccc(C(=O)Nc2cnc(-n3c(C(F)(F)F)nc4cc(OC)ccc43)cn2)cc1` [Compound 133, 4-Ethoxy-N-[5-(5-methoxy-2-trifluoromethyl-benzoimidazol-1-yl)-pyrazin-2-yl]-benzamide], the pIC50 was less than 6.00.

Consider `CCOc1ccccc1C(=O)Nc1cnc(-n2c(C(F)(F)F)nc3cc(OC)ccc32)cn1` [Compound 123, 2-Ethoxy-N-[5-(5-methoxy-2-trifluoromethyl-benzoimidazol-1-yl)-pyrazin-2-yl]-benzamide], for which the negative logarithm of the IC50 (pIC50) was less than 6.00.

`COc1ccc2c(c1)nc(C(F)(F)F)n2-c1cnc(NC(=O)c2cccc(I)c2)cn1` [Compound 112, 3-Iodo-N-[5-(5-methoxy-2-trifluoromethyl-benzoimidazol-1-yl)-pyrazin-2-yl]-benzamide] showed a pIC50 of 6.76.

Values taken from patent US8119643B2, “Benzoimidazolyl-pyrazine compounds for inflammation and immune-related uses” (Synta Pharmaceuticals Corp., priority 2006, dated 2012).
